Laboratory results reported in patent US11571401B2, “Compounds, compositions, kits, and methods for activating immune cells and/or an immune system response” (East Carolina University, priority 2017, dated 2023).

Key:
[1] = tested on: immature dendritic cells isolated from the bone marrow of C57BL/6 mice; test: Dendritic cell maturation: drug-treated B16F10 cells co-cultured with immature bone marrow dendritic cells; type: cell-based, mouse; conditions: FIG. 9
Experimental: B16F10 melanoma cells remained untreated (UT) or were treated with lipopolysaccharide (LPS; positive control dendritic cell activator), vehicle (VEH; 0.1% DMSO), 500 uM oxaliplatin (OXA; positive control DAMP inducer), or 5 uM 15dPMJ2 (PMJ). The drug-treated cancer cells were then co-cultured with immature dendritic cells that were isolated from the bone marrow of C57BL/6 mice (mouse strain from which the B16F10 cell line was derived). Cell surface markers for dendritic cell maturation were then detected.

B16F10 melanoma cells [2] = test: Cell surface calreticulin (CRT) expression by flow cytometry in B16F10 melanoma cells; type: cell-based, mouse
Experimental: DAMPs are proteins that are expressed on the surface of cancer cells (e.g., calreticulin (CRT)) or are released from cancer cells (e.g., ATP and HMGB1) after exposure to DAMP inducing agents. DAMPs signal immune cell mediated cancer death.
B16F10 melanoma cells were treated with 5 uM 15dPMJ2 (PMJ), 5 uM oxaliplatin (OX), drug vehicle (VEH, DMSO 0.1%) or cells remained untreated (UT) for 2 hours. After 2 hours, cell surface calreticulin (CRT) expression was measured by flow cytometric analysis.
Brefeldin A is a molecule that inhibits the movement of proteins from the ER to the golgi apparatus (inhibits ER-golgi trafficking). Proteins must move from the ER to golgi in order translocate to the cell surface.
B 16f10 cells were treated with vehicle (V), brefeldin A (BFA), 15dPMJ2 (PMJ) or brefeldin+15dPMJ2.

[3] = tested on: non-tumorigenic, HaCaT keratinocyte cell line; test: Cell surface CD47 expression by flow cytometry in HaCaT keratinocytes; type: cell-based, human; conditions: HaCaT non-tumor keratinocytes vs drug vehicle (0.1% DMSO); FIG. 8
Experimental: (§1) Tumorigenic, A431, and non-tumorigenic, HaCaT keratinocyte cell lines were treated with 15dPMJ2 or drug vehicle (0.1% DMSO) and the cell surface expression of calreticulin (CRT; “eat me” signal) and CD47 (“don't eat me” signal) was detected by conducting flow cytometric analysis.

A431 cells = test: Cell surface CD47 expression by flow cytometry in A431 cells; type: cell-based, human; conditions: A431 tumor cells vs drug vehicle (0.1% DMSO); FIG. 8
Experimental: as §1

[4] = tested on: non-tumorigenic, HaCaT keratinocyte cell line; test: Cell surface CRT expression by flow cytometry in HaCaT keratinocytes; type: cell-based, human; conditions: HaCaT non-tumor keratinocytes vs drug vehicle (0.1% DMSO); FIG. 7
Experimental: as §1

[5] = tested on: HT-29 (colon cancer) cells; test: Cell surface CRT expression by flow cytometry in HT-29 cells; type: cell-based; conditions: 5 μM (FIG. 6), 2 hours
Experimental: (§2) A431 cells (NMSC) and HT-29 (colon cancer) cells were treated with 15dPMJ2, oxaliplatin (OX), drug vehicle (VEH) or cells were untreated (UT) for 2 hours. Cell surface CRT expression was then detected by flow cytometric analysis.

B16F10 melanoma cells [6] = test: Extracellular ATP release from B16F10 melanoma cells; type: cell-based, mouse
Experimental: B16F10 melanoma cells were treated with 5 uM 15dPMJ2 (PMJ), 5uM oxaliplatin (OX), drug vehicle (VEH, DMSO 0.1%) or cells remained untreated (UT) for 4 hours. After 4 hours of drug treatment, the cell culture media from B16F10 cells was obtained to measured ATP levels.
B16F10 cells were treated with 15dPMJ2 (PMJ), oxaliplatin (OX), or drug vehicle (VEH) in the presence or absence of the ER stress inhibitor, GSK2656157 (“inhibitor” (I)).

A431 cells (NMSC) = test: Cell surface CRT expression by flow cytometry in A431 cells; type: cell-based, human
Experimental: as §2, §1

B16F10 melanoma tumors = test: Tumor-infiltrating mature dendritic cells in B16F10 melanoma tumors in mice; type: in vivo; conditions: C57BL/6 mice, peri-tumor route, 5 days, 0.5 and 0.25 mg/kg (FIG. 10), compared to cisplatin-, oxaliplatin-treated and untreated animals
Experimental: To determine if 15dPMJ2 can increase the amount of tumor-attacking immune cells in melanoma tumors, a pilot xenograft study was conducted. B16F10 melanoma cells were injected into the subcutaneous flank region of C57BL/6 mice and tumor growth was allowed until tumors were palpable. Animals were then treated by the peri-tumor route with 15dPMJ2, oxaliplatin (positive control DAMP inducer), cisplatin (negative control DAMP inducer), vehicle (PBS containing 0.1% DMSO) or animals were untreated. After 5 days of drug treatment, animals were euthanized and tumors excised for analysis of infiltrating immune cells (TILs). Tumors were dissociated to create a single cell suspension. The expression of MHC II and CD86 (dendritic cell maturation markers) was analyzed by conducting flow cytometric analysis.

tumor cells = conditions: background statement; see U.S. Pat. No. 9,328,060; cited from earlier work

## O=C1[O][Pt]2([NH][C@@H]3CCCC[C@H]3[NH]2)[O]C1=O [Oxaliplatin, oxaliplatin, reference compound]
[1]; B16F10 cells treated with 500 uM oxaliplatin (100 times the concentration of 15dPMJ2), then co-cultured with BMDCs, compared with 15dPMJ2
  dendritic cell maturation (MHC II and CD86): caused similar levels of dendritic cell maturation

## C[C@H]1CCC/C=C/[C@@H]2C[C@H](O)C[C@H]2[C@H](O)/C=C/C(=O)O1 [Brefeldin A, reference compound]
B16F10 melanoma cells [2]; brefeldin + 15dPMJ2, FIG. 4
  15dPMJ2-mediated cell surface CRT expression in presence of brefeldin A: inhibited 15dPMJ2-mediated cell surface CRT expression

## CCCCC/C=C/C=C1/C(=O)C=CC1C/C=C/CCCC(=O)NCCO (centres unmarked) [Formula 15dPMJ2, 15-deoxy Δ^12,14-prostagladin J2-ethanolamide]
[3]
  cell surface expression of CD47 (don't eat me signal): increase
B16F10 melanoma cells [2]; 5 uM, 2 hours, flow cytometry, FIG. 1
  cell surface calreticulin (CRT) expression: significantly greater than oxaliplatin
A431 cells
  cell surface expression of CD47 (don't eat me signal): decreased
[4]
  cell surface expression of calreticulin (CRT; eat me signal): slight increase
[5]
  cell surface CRT expression (DAMP expression): potent inducer of DAMP expression
[1]; B16F10 cells treated with 5 uM 15dPMJ2, then co-cultured with BMDCs
  expression of MHC II and CD86 (dendritic cell maturation markers): significantly increased the expression of MHC II and CD86
B16F10 melanoma cells [6]; 5 uM, 4 hours, FIG. 2
  ATP release (extracellular ATP in cell culture media): significantly increased ATP release compared to vehicle and oxaliplatin treated cells
A431 cells (NMSC); A431 cells, 5 μM (FIG. 5), 2 hours
  cell surface CRT expression (DAMP expression): potent inducer of DAMP expression
A431 cells (NMSC); A431 tumor cells vs drug vehicle (0.1% DMSO), FIG. 7
  cell surface expression of calreticulin (CRT; eat me signal): increased
B16F10 melanoma tumors
  quantity of mature dendritic cells (MHC II, CD86) that infiltrated the tumor: increased the quantity of mature dendritic cells that infiltrated the tumor
Tumor cells
  cell death in tumor cells compared to non-tumor cells: preferentially causes cell death in tumor cells compared to non-tumor cells

## Cc1cccc(CC(=O)N2CCc3c2ccc(-c2cn(C)c4ncnc(N)c24)c3F)n1 [GSK2656157, reference compound]
B16F10 melanoma cells [6]; inhibitor + 15dPMJ2 vs 15dPMJ2 alone, FIG. 3
  extracellular ATP levels after 15dPMJ2 in presence of the ER stress inhibitor: significantly decreased extracellular ATP levels
